Measured values from patent publication US11660326B2, “Bacterial-binding peptides for treatment of infectious diseases and related inflammatory processes” (priority 2018, dated 2023).

B1: rshCD6: recombinant soluble form of human CD6, SEQ ID NO.: 10 (protein)
chain: DQLNTSSAESELWEPGERLPVRLTNGSSSCSGTVEVRLEASWEPACGALWDSRAAEAVCRALGCGGAEAASQLAPPTPELPPPPAAGNTSVAANATLAGAPALLCSGAEWRLCEVVEHACRSDGRRARVTCAENRALRLVDGGGACAGRVEMLEHGEWGSVCDDTWDLEDAHVVCRQLGCGWAVQALPGLHFTPGRGPIHRDQVNCSGAEAYLWDCPGLPGQHYCGHKEDAGAVCSEHQSWRLTGGADRCEGQVEVHFRGVWNTVCDSEWYPSEAKVLCQSLGCGTAVERPKGLPHSLSGRMYYSCNGEELTLSNCSWRFNNSNLCSQSLAARVLCSASRSLHNLSTPEVPASVQTVTIESSVTVKIENKESR
modifications: rshCD6

Key:
[1] = Solid phase binding assay (ELISA) of biotin-labeled peptides to immobilized LTA; design: species or system S. aureus; conditions: biotin-labeled peptide 5-20 μg/mL; LTA 5 μg/mL coated
Experimental: (§1) FIG. 3. Binding of biotin-labeled CD6-derived peptides to immobilized PAMPs from Gram- and Gram+ origin. Increasing concentrations (5-20 μg/mL) of biotin-labeled CD6- (PD1, PD2, PD3 and cons), DMBT1- (pbs1), and CD5- (PD1) derived peptides were added to 96-well ELISA plates sensitized with E. coli 0111:B4 LPS (A) or S. aureus LTA (B) (5 μg/mL each in PBS). Following overnight incubation at 4° C. bound peptides or proteins were developed by addition of horseradish peroxidase (HRP)-labeled streptavidin and 3,3′,5,5′-tetramethylbenzidine (TMB) substrate and further readings at OD 405-620 nm. Results are expressed as mean±SD of duplicates from one representative experiment of three performed. Statistical analysis was performed by two-way ANOVA (*,P<0.05; **, P<0.01; ***, P<0.001).
(§2) Solid Phase Binding Assays. 96-well microtiter plates (Nunc, Roskilde, Denmark) were coated overnight at 4° C. with 5 μg/mL of purified LPS (E. coli 0111:B4, Sigma L2630) or LTA (S. aureus, Sigma L2515) in PBS, and then incubated for 2 h at room temperature in blocking solution (20 mM Tris-HCl pH 7.4 plus 0.05% Tween 20 and 1% BSA). Biotin-labeled peptides/proteins (2.5-20 μg/mL) were added and incubated overnight at 4° C. in blocking solution. After extensive washing, bound peptides/proteins were detected by the addition of horseradish peroxidase (HRP)-labeled streptavidin (1:5,000 dilution; DAKO) for 1 h at room temperature. Color was developed by adding 3,3′,5,5′-tetramethylbenzidine (TMB) liquid substrate (Sigma), and optical density read at 405-620 nm.

[2] = Solid phase binding assay (ELISA) of biotin-labeled peptides to immobilized LPS; design: species or system E. coli; conditions: biotin-labeled peptide 5-20 μg/mL; LPS 5 μg/mL coated
Experimental: as §1, §2

[3] = Dynamic light scattering (DLS), hydrodynamic size of peptides in solution; format: physicochemical; conditions: 10 μg/mL in PBS, 25° C.
Experimental: FIG. 5. Analysis of the hydrodynamic size of CD6-derived peptides in solution. The dynamic light scattering (DLS) analysis of the hydrodynamic diameter of CD6 (PD1, PD2, PD3, and Pcons) and DMBT-1/SAG (pbs1) derived peptides (10 μg/mL) in PBS is shown. The y axis represents the relative intensity of the scattered light; the x axis denotes the hydrodynamic diameter of the particles present in the solution. One representative experiment of four performed is shown (left). The numeric values obtained for each peptide are also shown (right).
The hydrodynamic diameters of peptides (10 μg/mL in PBS) were measured at 25° C. in a Zetasizer Nano S from Malvern Instruments (Worcestershire, UK) equipped with a 633 nm HeNe laser, as described (Saenz A, et al., 2010, Fluidizing effects of C-reactive protein on lung surfactant membranes: protective role of surfactant protein A, FASEB J 24:3662-73). Four scans were recorded for each sample, and samples were analyzed in triplicate.

[4] = system: mice undergoing CLP-induced septic shock; test: Mouse survival following CLP-induced septic shock; format: in vivo, C57BL/6J mice; conditions: single 6 mg/kg i.v. at +1 h post CLP; FIG. 7
Experimental: FIG. 7. Comparative therapeutic effects of i.v. infused CD6-derived peptides on mouse survival following Cecal Ligation and Puncture (CLP)-induced sepsis. (A, B) C57BL/6J mice were i.v. infused with saline (n=25) or single 6 mg/kg doses of unlabeled CD6- (PD1, n=8; PD2, n=16; PD3, n=15; Pcons, n=12) or DMBT1 (pbs1, n=13) derived peptides at +1 h post CLP induction. A sham group (n=3) was included. In all cases average percent survival was analyzed over time for each group and compared with the saline-treated group using the long-rank t-test (*, P<0.05; **, P<0.01; ***, P<0.001).
FIG. 8. Dose-, time- and via-dependent effects of CD6.PD3 infusion on mouse survival following CLP-induced sepsis. (A) C57BL/6 mice were i.v. infused at +1 h post CLP with saline (n=26) or single increasing doses (3 mg/kg, n=13; 6 mg/kg, n=15; and 12 mg/kg, n=8) of CD6.PD3 peptide. (B) C57BL/6 mice were i.v. infused with saline (n=4) or 6 mg/kg CD6.PD3 at different times post CLP (+1 h, n=5; +3 h, n=5; +6 h, n=6). (C) C57BL/6J mice were i.v. (n=11) or i.p. (n=9) infused with 6 mg/kg CD6.PD3 peptide or saline (n=9) at +1 h post CLP. In all cases, average percent of survival was analyzed over time and compared with the saline-treated group using a log-rank t-test (n.s., not significant; *, P<0.05. **, P<0.01; ***, P<0.001).
FIG. 10. Additive effects of combined administration of CD6.PD3 plus Imipenem/Cilastatin on mouse survival following CLP-induced sepsis. C57BL/6J mice were therapeutically infused at +1 h post CLP with saline (n=36), CD6.PD3 (6 mg/kg i.v.; n=25), Imipenem/Cilastatin (I/C, 50 mg/kg/12 h i.p.; n=9) or a combination of the two later (I/C+PD3, n=11). In all cases average percent survival was analyzed over time for each group and compared to the I/C plus CD6.PD3 group using the long-rank t-test (**, P<0.02; ***, P<0.002).
Animal procedures were approved by the Animal Experimentation Ethical Committee, University of Barcelona. High-grade mortality (≥90% mortality within the first 48-72 h) CLP-induced septic shock was induced in 8-10 week old C57BL/6J male mice (20-25 g; Charles River) as previously reported (Martinez-Florensa M, et al., 2017, Protective Effects of Human and Mouse Soluble Scavenger-Like CD6 Lymphocyte Receptor in a Lethal Model of Polymicrobial Sepsis, Antimicrob Agents Chemother 61:e01391-16).
Survival assays were analyzed by a Log-Rank χ^2 test using GraphPad Prism software. The significance of differences between experimental groups was determined by 2-tailed paired T test with 95% of confidence intervals (CI). P values were considered significant when P<0.05. Statistical analysis (mean±SEM) was performed using a 2-tailed Mann-Whitney test, with 95% of Cl.

[5] = system: mouse splenocytes exposed to LPS; test: LPS-induced cytokine release by mouse splenocytes; format: cell-based, C57BL/6 mice; conditions: LPS 0.5 μg/mL, 48 h, peptide 0.5, 5 and 20 μg/mL
Experimental: FIG. 6. Effect of CD6-derived peptides on in vitro LIPS-induced cytokine release by mouse splenocytes. Total spleen cell suspensions (2×10^5) from C57BL/6 mice (n=7) were stimulated in triplicate for 48 h with LPS (0.5 μg/mL), in the presence or absence of increasing concentrations (0.5, 5, and 20 μg/mL) of CD6-derived peptides (PD1, PD2, PD3, and Pcons). Cytokine levels in culture supernatants were determined by ELISA and results expressed in pg/mL as mean±SD of triplicates. Viability was >75% at 48 h in all experimental conditions. Statistical analysis was performed using a 2-tailed Mann-Whitney test, with confidence intervals of 95% (*, P<0.05; **, P<0.01; ***, P<0.001).
Spleens from 6-8 week old C57BL/6 mice (Charles River) were disaggregated by filtering through a cell strainer and, after erythrocyte lysis, cells were resuspended in RPMI 1640 with L-glutamine (Lonza) plus 10% fetal calf serum (BioWest), 100 U/mL penicillin, 100 μg/mL streptomycin and 50 μM 2-(3 Mercaptoethanol (Merck). Cells (2×10^5) were stimulated for 48 h (at 37° C. in a humidified atmosphere with 5% CO2) in U-bottomed 96-well plates (Biofil) containing LPS (0.5 μg/mL; E. coli O111:B4), in the presence or absence of increasing peptides (0.5-20 μg/mL). Culture supernatants were harvested and mouse cytokines measured by ELISA following manufacturer's instructions (BD Biosciences OptEIA sets).

[6] = depending on the G− strain used; read-out: Kd of the LPS/Polymixin B interaction; cited from earlier work
[7] = Endotoxin adsorption on peptide/protein-coated Eupergit beads (LAL assay); conditions: 50 UI/mL LPS, 0-150 min, vs HSA- and rshCD5-coated controls
Experimental: FIG. 11. Endotoxin adsorption assays on immobilized CD6-derived peptides and proteins. Eupergit® beads coated with different CD6-derived peptides (PD2, PD3, and Pcons) (A) or proteins (rshCD5 and rshCD6) (B) were incubated for different periods of time (0, 30, 90 and 150 min) with a 50 UI/mL endotoxin solution. Limulus amoebocyte lysate activating activity (LAL activity) of supernatants was then monitored along time and the OD 405-620 nm represented. Beads coated with Human Serum Albumin (HSA) were used as negative controls. Shown are triplicates of a representative experiment from two independent performed. Statistical analysis was done by using the 2-tailed paired T test with 95% confidence interval (***, P<0.001).
Proteins or peptides (2.5 mg each) were immobilized via NH2 groups on macroporous acrylic EUPERGIT© beads (0.2 g; Röhm-Pharma GmbH, Germany) following a previously described protocol (Zimmermann M, et al., 1999, Endotoxin adsorbent based on immobilized human serum albumin. Clin Chem Lab Med 37:373-379). Peptide or protein-coated Eupergit® beads are obtained by incubation with stirring of the polymeric beads at room temperature with a solution of the peptides of the invention in sodium phosphate buffer 100 mM pH 8 for 24 hours. After incubation, the beads were washed 3 times with 3 M sodium chloride pH 7.0, 30 mM sodium phosphate buffer pH 4.0 and 30 mM sodium phosphate buffer pH 8.0. Finally, 154 mM sodium chloride solution pH 7.0 was added to the peptide or protein-coated beads.
LPS detection was performed by using the turbidimetric-kinetic Limulus Amebocyte Lysate (LAL) kit-QCL (50-650U, Lonza) following manufacturer's instructions. Protein/peptide-coated EUPERGIT® beads were incubated 1:1 (v:v) with the provided endotoxin solution (50 UI/mL) for different periods of time (0-150 min) at room temperature following manufacturer's instructions.

[8] = system: pro-inflammatory cytokine (IL-1β, IL-6, TNF-α) release; conditions: cited from earlier work
[9] = system: mouse models of septic shock; conditions: cited from earlier work
[10] = cited from earlier work

Row | Molecule | binding to immobilized LTA (ELISA) [1] | binding to immobilized LPS (ELISA) [2] | hydrodynamic size, first (or single) peak [3] [nm] | hydrodynamic size, second peak [3] [nm] | survival [4] [%] | also measured
1 | GQLEVYLKDGW (CD5.PD1) | no significant binding | no significant binding | – | – | – | –
2 | GRVEVLFRGSW (CD6 Pcon) [CD6.cons, reference compound] | dose-dependent binding | dose-dependent binding | 1636±6 | 5493±7 | 25 | IL-1β release [5]: dose-dependent inhibitory effects; IL-6 release [5]: dose-dependent inhibitory effects; IL-10 release [5]: not
3 | GRVEVLYRGSW (DMBT-1.pbs1) [DMBT1.pbs1, reference compound] | dose-dependent binding | dose-dependent binding | 169±5 | 617±4 | 23.07 | –
4 | Polymixin B | – | – | – | – | – | Kd [6]: 100 to 900 nM
5 | B1 | – | – | – | – | – | endotoxin levels (LAL assay) [7]: reduced endotoxin levels; pro-inflammatory cytokine (IL-1β, IL-6, TNF-α) release triggered by LPS or LTA/PGN [8]: down-modulates; lethal effects caused by LPS-induced septic shock ([9]; i.p. administration, mice (EP 2143436)): counteracts the lethal effects; serum levels of pro-inflammatory cytokines (IL-1β, IL-6 and TNF-α) ([9]; prophylactic infusion): significantly reduces; mortality ([9]; prophylactic infusion, endotoxin, whole bacteria and peritonitis models): significantly reduces mortality; Kd affinities for bacterial PAMPs (LPS, LTA or PGN) [10]: in the nM range
